#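 Each compound was tested at five concentrations against cells in 96-well plates for 48 hours. At the TGI there is no net growth.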
# Experiments:
# Experiment in all cases: DTP human tumour cell line panel, 48 h
# [1] = system: 786-0 renal
# [2] = system: A498 renal
# [3] = system: A549 NSCLC
# [4] = system: ACHN renal
# [5] = system: BT-549 breast
# [6] = system: CAKI-1 renal
# [7] = system: COLO 205 colon
# [8] = system: DU-145 prostate
# [9] = system: EKVX NSCLC
# [10] = system: HCC-2998 colon
# [11] = system: HCT-116 colon
# [12] = system: HCT-15 colon
# [13] = system: HOP-62 NSCLC
# [14] = system: HT29 colon
# [15] = system: IGROV1 ovarian
# [16] = system: K-562 leukemia
# [17] = system: KM12 colon
# [18] = system: LOX IMVI melanoma
# [19] = system: M14 melanoma
# [20] = system: MALME-3M melanoma
# [21] = system: MCF7 breast
# [22] = system: MDA-MB-231 breast
# [23] = system: MDA-MB-435
# [24] = system: MOLT-4 leukemia
# [25] = system: NCI-H226 lung
# [26] = system: NCI-H23 lung
# [27] = system: NCI-H460 lung
# [28] = system: NCI/ADR-RES ovarian
# [29] = system: OVCAR-3 ovarian
# [30] = system: OVCAR-4 ovarian
# [31] = system: OVCAR-5 ovarian
# [32] = system: OVCAR-8 ovarian
# [33] = system: PC-3 prostate
# [34] = system: RPMI-8226 leukemia
# [35] = system: RXF 393 renal
# [36] = system: SF-268 CNS
# [37] = system: SF-295 CNS
# [38] = system: SF-539 CNS
# [39] = system: SK-MEL-2 melanoma
# [40] = system: SK-MEL-28 melanoma
# [41] = system: SK-MEL-5 melanoma
# [42] = system: SK-OV-3 ovarian
# [43] = system: SNB-19 CNS
# [44] = system: SNB-75 CNS
# [45] = system: SR leukemia
# [46] = system: SW-620 colon
# [47] = system: T-47D breast
# [48] = system: TK-10 renal
# [49] = system: U251 CNS
# [50] = system: UACC-257 melanoma
# [51] = system: UACC-62 melanoma
# [52] = system: UO-31 renal
# [53] = system: HOP-92 NSCLC
compound,measurement,setting,value
CC1(C)C2CCC1(C)[C@H](O)[C@H]2Nc1cc(C(F)(F)F)cc(C(F)(F)F)c1 (stereo not given in full),TGI,[1],12.2 µM
same,TGI,[2],> 100 µM
same,TGI,[3],13.6 µM
same,TGI,[4],> 100 µM
same,TGI,[5],8.31 µM
same,TGI,[6],13.1 µM
same,TGI,[7],3.28 µM
same,TGI,[8],12.1 µM
same,TGI,[9],12.5 µM
same,TGI,[10],9.8 µM
same,TGI,[11],8.17 µM
same,TGI,[12],12.6 µM
same,TGI,[13],17.7 µM
same,TGI,[14],12.5 µM
same,TGI,[15],11.5 µM
same,TGI,[16],7.72 µM
same,TGI,[17],10.7 µM
same,TGI,[18],10.4 µM
same,TGI,[19],15.6 µM
same,TGI,[20],9.12 µM
same,TGI,[21],> 100 µM
same,TGI,[22],15.3 µM
same,TGI,[23],11.6 µM
same,TGI,[24],5.91 µM
same,TGI,[25],19.4 µM
same,TGI,[26],6.98 µM
same,TGI,[27],12 µM
same,TGI,[28],7.13 µM
same,TGI,[29],6.01 µM
same,TGI,[30],17.3 µM
same,TGI,[31],21.1 µM
same,TGI,[32],9.26 µM
same,TGI,[33],8.42 µM
same,TGI,[34],7.11 µM
same,TGI,[35],9.03 µM
same,TGI,[36],8.02 µM
same,TGI,[37],7.27 µM
same,TGI,[38],15.6 µM
same,TGI,[39],5.45 µM
same,TGI,[40],7.14 µM
same,TGI,[41],17.6 µM
same,TGI,[42],13.8 µM
same,TGI,[43],16.2 µM
same,TGI,[44],3.56 µM
same,TGI,[45],9.23 µM
same,TGI,[46],12 µM
same,TGI,[47],6.99 µM
same,TGI,[48],9.89 µM
same,TGI,[49],14.2 µM
same,TGI,[50],12.9 µM
same,TGI,[51],> 100 µM
same,TGI,[52],12.7 µM
N#Cc1nnc2ccccc2c1N,TGI,[1],> 100 µM
same,TGI,[3],> 100 µM
same,TGI,[4],> 100 µM
same,TGI,[5],> 100 µM
same,TGI,[6],> 100 µM
same,TGI,[7],> 100 µM
same,TGI,[8],> 100 µM
same,TGI,[9],> 100 µM
same,TGI,[10],> 100 µM
same,TGI,[11],> 100 µM
same,TGI,[12],> 100 µM
same,TGI,[13],> 100 µM
same,TGI,[53],> 100 µM
same,TGI,[14],> 100 µM
same,TGI,[15],> 100 µM
same,TGI,[16],> 100 µM
same,TGI,[17],> 100 µM
same,TGI,[18],> 100 µM
same,TGI,[19],> 100 µM
same,TGI,[20],> 100 µM
same,TGI,[21],> 100 µM
same,TGI,[22],> 100 µM
same,TGI,[23],> 100 µM
same,TGI,[24],> 100 µM
same,TGI,[25],> 100 µM
same,TGI,[26],> 100 µM
same,TGI,[27],> 100 µM
same,TGI,[28],> 100 µM
same,TGI,[29],26.4 µM
same,TGI,[30],> 100 µM
same,TGI,[31],> 100 µM
same,TGI,[32],> 100 µM
same,TGI,[33],> 100 µM
same,TGI,[34],> 100 µM
same,TGI,[36],> 100 µM
same,TGI,[38],> 100 µM
same,TGI,[39],> 100 µM
same,TGI,[40],> 100 µM
same,TGI,[41],> 100 µM
same,TGI,[43],> 100 µM
same,TGI,[45],> 100 µM
same,TGI,[46],> 100 µM
same,TGI,[47],> 100 µM
same,TGI,[48],> 100 µM
same,TGI,[49],> 100 µM
same,TGI,[50],> 100 µM
same,TGI,[51],> 100 µM
same,TGI,[52],> 100 µM

# Source: PubChem BioAssay (NCI)
